# Results published in patent US7338940B2, “Cancer treatment including glycolytic inhibitors” (priority 2000, dated 2008).
# Tests used:
# [1] = tested on: osteosarcoma cell line (143B; Wild type); test: Growth inhibition studies in wild type 143B osteosarcoma cells; type: cell-based; details: for IC50: Homo sapiens, read-out: 50% Growth Inhibition Dose; for IC50 / 50% Growth Inhibition Dose: Wild type (143B) cells
# [2] = tested on: ρ^o cells (cell line 206); test: Growth inhibition studies in ρ° cells devoid of mitochondrial DNA; type: cell-based; details: for Relative toxicity/sensitivity in ρ^o vs wt cells (in words): cell model (B); for IC50 / 50% Growth Inhibition Dose: ρ° cells; for IC50: read-out: 50% Growth Inhibition Dose; for Ratio of 50% growth inhibition dose, ρ° to wild type (times more resistant): ρ° vs wild type 143B cells
# From the text: When an osteosarcoma cell line (143B; Wild type in Table 1 below) was exposed for prolonged periods to ethidium bromide a mutant completely devoid of mitochondrial DNA ρ^o was isolated. […] These processes are necessary for transmembrane proton pumping which creates an electronegative membrane potential (Δψmt) in the matrix side of the inner mitochondrial membrane. Since Rho 123 is a fluorescent dye, which due to its chemical positive charge accumulates in mitochondria, it is commonly used as an indicator of Δψmt.
# 143b cells = test: Lactate production in living cells (screen for inhibitors of oxidative phosphorylation); type: cell-based; details: for Change in lactate production (in words): increasing doses
# From the text: Lactate (more commonly known as lactic acid) is an end product of glycolysis that is activated when a cell cannot use oxygen as its final electron acceptor. This occurs when cells are metabolizing anaerobically. Thus, under these conditions, pyruvate, which is the last end product of glycolysis during aerobic metabolism, is further metabolized to lactate. […] This discovery created a need for a screening method to identify agents which inhibit oxidative phosphorylation and thereby render a cell hypersensitive to glycolytic inhibitors. Consequently, we have developed a rapid and an inexpensive way to detect such agents by measuring increases in the production of lactate in living cells.
# Such methodology provides a practical means for testing and or screening extensive libraries of structurally diverse compounds to identify inhibitors of oxidative phosphorylation as well as for obtaining new leads to design novel inhibitors of this fundamental cellular process.
# [3] = tested on: tumor cells (143B or MCF-7); test: Hypersensitization of tumor cells to glycolytic inhibitors (cell model (A)); type: cell-based; details: intact tumor cells
# [4] = tested on: human breast carcinoma cells, MCF-7; test: Colony forming units after co-treatment with Rho 123 and 2-dg; type: cell-based
# From the text: 218:1117-1119, 1982; Lampidis, T J, Bernal, S D, Summerhayes, I C, and Chen, L B. “Selective toxicity of Rhodamine 123 in carcinoma cells in vitro.” Cancer Res. 43:716-720, 1983; and Bernal, S B, Lampidis, T J, Mclsaac, B, and Chen, L B. “Anticarcinoma activity in vivo of Rhodamine 123, a mitochondrial-specific dye.” Science.
# implanted tumors = test: In vivo treatment of animals with implanted tumors; details: for Tumor response: animals with implanted tumors
# From the text: This latter result provides evidence that manipulation of Oxphos and glycolysis simultaneously can cure tumors in animals. […] In this regard, several reports have shown that low levels of 2-dg can be safely administered to animals for various reasons including hypersensitization of tumors to irradiation.
# [5] = tested on: wild type 143B (wt) and ρ^o cells (cell line 206); test: Flow cytometric analysis of Rho 123 accumulation/retention; type: cell-based; details: non-P-gp cell lines (143B wt and ρ^o)
# Protocol: Flow cytometric analysis was performed in order to quantitate the differences observed microscopically between wild type 143B (wt) and ρ^o cells (designated as cell line 206) in their accumulation of Rho 123.
# To ensure that our accumulation results were not complicated by P-gp-mediated MDR, since Rho 123 is a known substrate for this transporter, both cell types were examined for this gene by RT-PCR and were found not to express it.
IC50 [1],Compound,Relative toxicity/sensitivity in ρ^o vs wt cells (in words) [2],IC50 [2],"Ratio of 50% growth inhibition dose, ρ° to wild type (times more resistant) [2]",Change in lactate production (in words) (143b cells),Hypersensitization of tumor cells to glycolytic inhibitors [3],further results
0.00075 µg/mL,CC[C@]1(O)C[C@@H]2CN(CCc3c([nH]c4ccccc34)[C@@](C(=O)OC)(c3cc4c(cc3OC)N(C)[C@H]3[C@@](O)(C(=O)OC)[C@H](OC(C)=O)[C@]5(CC)C=CCN6CC[C@]43[C@@H]65)C2)C1 [Vinblastine],equitoxic,0.00075 µg/mL,1,little or no significant changes,do not hypersensitize,LACTATE (143b cells; dose 0.0005 μg/ml): 5.6 +/− 0.6 μg/μg protein; LACTATE (143b cells; dose 0.001 μg/ml): 6.3 +/− 0.9 μg/μg protein; LACTATE (143b cells; dose 0.002 μg/ml): 5.8 +/− 0.3 μg/μg protein
,Rhodamine 123,,,50,lactate is accordingly increased,hypersensitize,"50% Growth Inhibition Dose [1]: 1.0 µg/mL; 50% Growth Inhibition Dose [2]: 50 µg/mL; Colony forming units inhibited ([4]; MCF-7, Rho 123 at its 50% dose, 2-dg at a non-toxic dose): 50%; Tumor response (implanted tumors): only partial or no responses; LACTATE (143b cells; dose 0.25 μg/ml): 9.3 +/− 0.4 μg/μg protein; LACTATE (143b cells; dose 0.50 μg/ml): 13.2 +/− 0.2 μg/μg protein; LACTATE (143b cells; dose 1.0 μg/ml): 14.6 +/− 2.3 μg/μg protein"
,COc1ccc(CCN(C)CCCC(C#N)(c2ccc(OC)c(OC)c2)C(C)C)cc1OC (stereo not drawn) [verapamil],,,,,,Effect on retention of Rho 123 [5]: increases the retention of Rho 123
0.01 µg/mL,COc1cccc2c1C(=O)c1c(O)c3c(c(O)c1C2=O)C[C@@](O)(C(=O)CO)C[C@@H]3O[C@H]1C[C@H](N)[C@H](O)[C@H](C)O1 [Doxorubicin],equitoxic,0.01 µg/mL,1,little or no significant changes,do not hypersensitize,LACTATE (143b cells; dose 0.005 μg/ml): 5.1 +/− 0.4 μg/μg protein; LACTATE (143b cells; dose 0.01 μg/ml): 5.5 +/− 0.7 μg/μg protein
0.05 µg/mL,CC(=O)O[C@H]1C(=O)[C@@]2(C)[C@H]([C@H](OC(=O)c3ccccc3)[C@]3(O)C[C@H](OC(=O)[C@H](O)[C@@H](NC(=O)c4ccccc4)c4ccccc4)C(C)=C1C3(C)C)[C@]1(OC(C)=O)CO[C@@H]1C[C@@H]2O [Paclitaxel],equitoxic,0.05 µg/mL,1,little or no significant changes,do not hypersensitize,LACTATE (143b cells; dose 0.0005 μg/ml): 5.6 +/− 0.7 μg/μg protein; LACTATE (143b cells; dose 0.001 μg/ml): 6.1 +/− 0.7 μg/μg protein; LACTATE (143b cells; dose 0.002 μg/ml): 6.6 +/− 0.3 μg/μg protein
,Cc1cc2nc3cc(C)c(N)cc3[n+](-c3ccccc3)c2cc1N.[Cl-] [Saffranin O],,,6,,,50% Growth Inhibition Dose [1]: 0.35 µg/mL; 50% Growth Inhibition Dose [2]: 2 µg/mL

Compound,IC50 [1],Relative toxicity/sensitivity in ρ^o vs wt cells (in words) [2],IC50 [2],"Ratio of 50% growth inhibition dose, ρ° to wild type (times more resistant) [2]",Change in lactate production (in words) (143b cells),Hypersensitization of tumor cells to glycolytic inhibitors [3],further results
"O=CC[C@@H](O)[C@H](O)[C@H](O)CO [2-deoxy-glucose, 2-deoxy-D-glucose]",1000 µg/mL,,50 µg/mL,0.05,,,"ID50 ([1]; wt cells): 1000 µg/mL; ID50 ([2]; ρ^o cells): 50 µg/mL; Toxicity at the dose used for co-treatment ([4]; MCF-7, drug alone): no toxicity; Tumor response (implanted tumors): only partial or no responses; Safety of administration to animals (implanted tumors; doses effective for anti-tumor activity in combination with an Oxphos inhibitor): can be administered safely"
